Measured values reported in patent publication US20210260010A1, “COMPOSITIONS AND METHODS FOR THE REDUCTION OR TREATMENT OF INFLAMMATION” (AXCELLA HEALTH INC., priority 2018, published 2021).

What was measured:
CCL18 = test: IL-4 induced CCL18 secretion in primary human monocyte-derived macrophages (ELISA); type: cell-based; conditions: for Donor 1 CCL18 Measurements Mean / Donor 2 CCL18 Measurements Mean: relative to vehicle control; for CCL18 Measurements: Mean (fold change relative to vehicle control): Donor 3, IL-4 induced; for IL-4 induced CCL18 secretion (fold change relative to vehicle control): macrophages
Protocol: Lymphocytes were purified from unpurified buffy coats (Research Blood Components) using Lymphocyte Separation Medium (Corning). After centrifugation, the PBMC layer was extracted and rinsed several times using Dulbecco's phosphate-buffered saline (DPBS; Gibco). After straining PBMCs through a 70 uM cell strainer, cells were resuspended and counted using a Cellometer K2 automated cell counter.
CD14+ cells were selected using EasySep™ Human CD14 Positive Selection Kit II ([…] Technologies) according to manufacturer-supplied protocols. Following isolation CD14+ cells were seeded into 10 cm tissue culture plates and differentiated into macrophages using M-CSF (Peprotech).
On day 0, primary human PBMC derived macrophages were seeded in Dulbecco's Modified Eagle Medium (DMEM) (Gibco) supplemented with penicillin-streptomycin (Hyclone) and 10% heat inactivated fetal bovine serum (HI-FBS) (Atlanta Bio) into 96-well microplates (ThermoFisher) and incubated overnight at 37° C., 5% CO2. On day 1, cells were washed once with DPBS and then treated with: • a. Amino acid free DMEM (US Biologicals) containing a defined custom amino acid concentration based on the mean physiological concentrations in blood based on values published in the Human Metabolome Database (HMDB), with 6 mM glucose, 1 mM sodium pyruvate, 10 mM HEPES, penicillin-streptomycin; or • b. The same medium described above with one amino acid or amino acid combination at various concentrations
On day 2, cells were treated with the same mediums described above supplemented with recombinant human interleukin-4 (IL-4; Peprotech). Control wells were treated with tofacitinib (Tocris) and IL-4, PBS with IL-4, or phosphate buffered saline (PBS) alone.
On day 3, the supernatant was collected and immediately frozen in −80° C. freezer. Cells were washed once with DPBS and viability was assessed using the WST-8 Cell Proliferation Cytotoxicity Assay (Dojindo) according to manufacturer-supplied protocol. Following the assay, cells were washed twice with PBS and fixed with 4% paraformaldehyde. Protein levels in supernatant samples were analyzed by ELISA for CCL18 using commercially available kits (R&D Systems) according to manufacturer-supplied protocols.

MCP1/CCL2 = MCP1/CCL2 secretion by primary human hepatocytes exposed to free fatty acids and TNF-α (ELISA); type: cell-based; conditions: for MCP1 expression relative to Control- Donor 1, Mean: donor 1 hepatocytes; for MCP1 expression relative to Control- Donor 1, Mean / MCP1 expression relative to Control- Donor 2, Mean: FFA + TNF-α, baseline subtracted; for MCP1 expression relative to Control- Donor 2, Mean: donor 2 hepatocytes; for MCP1/CCL2 secretion (baseline subtracted): primary human hepatocytes from two healthy donors, FFA 250 uM + TNF-α 1 ng/ml
Protocol: Hepatocyte lipotoxicity appears to be a central driver of hepatic cellular injury via oxidative stress and endoplasmic reticulum (ER) stress. The ability of amino acids to influence steatosis (lipid accumulation) and inflammation in hepatocytes was assessed using human primary hepatocytes (Lonza, TRL).
Primary hepatocytes lot nos. from two healthy human donors were seeded on day 0 at density of 6e04 cells in 96 well optical microplates (Thermofisher) in hepatocyte plating media (William's E medium (Gibco) supplemented with 10% heat-inactivated FBS (Atlanta Bio), 2 mM Glutamax (Gibco) and 0.2% Primocin (InVivoGen) and incubated for 6 hours at 37° C., 5% CO2. After 6 hours, cells were washed twice and incubated overnight at 37° C., 5% CO2 with Hepatocytes defined medium (Corning) supplemented with 2 mM Glutamax (Gibco) and 1× Penicillin/Streptomycin. On day 1, cells were washed twice and incubated for 24 h in the hepatocyte culture media in the same conditions described above.
On day 2, cells were washed twice with DPBS 1× (Gibco) and maintained in amino acid-free WEM (US Biologicals) containing a defined custom amino acid concentration based on the mean physiological concentrations in blood. The values are published in the Human Metabolome Database (Wishart D S, Tzur D, Knox C, et al., HMDB: the Human Metabolome Database. Nucleic Acids Res. January 2007; 35(Database issue):D521-6. 17202168; which is hereby incorporated by reference in its entirety). This custom media is supplemented with 11 mM Glucose, 0.272 mM Sodium Pyruvate, and a dose curve of defined amino acid compositions (i.e., vehicle, LIVRQ+N-acetylcysteine, LIVRQ, RQ+N-acetylcysteine, N-acetylcysteine alone, LIV, or individually with L-Leucine, L-Isoleucine, L-Valine, L-Arginine, L-Glutamine, and L-Cysteine) at various ranges of concentrations. Cells were maintained in this defined media for 24 hours at 37° C., 5% CO2.
After pre-treatment, cells were exposed to free fatty acids (FFA) at 250 uM with a ratio of 2:1 (Oleate:Palmitate) supplemented with TNF-α (Thermofisher) at 1 ng/ml or vehicle. Cells were incubated with the FFAs mixture and the different amino acids combinations for 24 hours at 37° C., 5% CO2. After 24 hours incubation, media was removed for cytokine analysis and replaced by fresh media containing the same stimulus conditions and amino acid concentrations. Cells were incubated for an additional 48 hours for a total of 72 hours of FFA and TNFα stimulation.
Human CCL2 (MCP-1) was measured by ELISA (Human […] DuoSet ELISA, R&D Systems) at ⅕ or 1/10 dilution in 1× Reagent Diluent (Reagent Ancillary Kit 2, R&D Systems). Data were normalized to the specific per well cell density determined by nuclei count stained by Hoechst 3342 (Life technologies) in the fluorescence microscopy described below.

[1] = Conc. 234 μM (baseline comparator)

## CC(=O)N[C@@H](CS)C(=O)O [NAC, N-acetylcysteine]
CCL18; Donor 1, Conc. 4 X
  Donor 1 CCL18 Measurements Mean: 1.831 fold change
CCL18; Donor 1, Conc. 10 X
  Donor 1 CCL18 Measurements Mean: 1.979 fold change
CCL18; Donor 1, Conc. 20 X
  Donor 1 CCL18 Measurements Mean: 2.206 fold change
CCL18; Donor 1, Conc. 40 X
  Donor 1 CCL18 Measurements Mean: 2.464 fold change
CCL18; Donor 2, Conc. 5 X
  Donor 2 CCL18 Measurements Mean: 1.326 fold change
CCL18; Donor 2, Conc. 10 X
  Donor 2 CCL18 Measurements Mean: 1.293 fold change
CCL18; Donor 2, Conc. 20 X
  Donor 2 CCL18 Measurements Mean: 1.169 fold change
CCL18; Donor 2, Conc. 40 X
  Donor 2 CCL18 Measurements Mean: 1.517 fold change
CCL18; Conc. 5 X
  CCL18 Measurements: Mean (fold change relative to vehicle control): 1.324 fold change
CCL18; Conc. 10 X
  CCL18 Measurements: Mean (fold change relative to vehicle control): 1.67 fold change
CCL18; Conc. 20 X
  CCL18 Measurements: Mean (fold change relative to vehicle control): 1.812 fold change
CCL18; Conc. 40 X
  CCL18 Measurements: Mean (fold change relative to vehicle control): 1.887 fold change
CCL18; Donor 1
  IL-4 induced CCL18 secretion (fold change relative to vehicle control): significantly increased
CCL18; Donor 2
  IL-4 induced CCL18 secretion (fold change relative to vehicle control): significantly increased
MCP1/CCL2; Conc. 1000 μM
  MCP1 expression relative to Control- Donor 1, Mean: −0.7629
  MCP1 expression relative to Control- Donor 2, Mean: 1.602
MCP1/CCL2; Conc. 2500 μM
  MCP1 expression relative to Control- Donor 1, Mean: −2.498
  MCP1 expression relative to Control- Donor 2, Mean: −4.0591
MCP1/CCL2; Conc. 5000 μM
  MCP1 expression relative to Control- Donor 1, Mean: −10.8919
  MCP1 expression relative to Control- Donor 2, Mean: −10.5725
MCP1/CCL2; Conc. 10000 μM
  MCP1 expression relative to Control- Donor 1, Mean: −17.6065
  MCP1 expression relative to Control- Donor 2, Mean: −28.4419
MCP1/CCL2; Conc. 5 X
  MCP1 expression relative to Control- Donor 1, Mean: −0.7629
MCP1/CCL2; Conc. 10 X
  MCP1 expression relative to Control- Donor 1, Mean: −2.498
MCP1/CCL2; Conc. 20 X
  MCP1 expression relative to Control- Donor 1, Mean: −10.8919
MCP1/CCL2; Conc. 40 X
  MCP1 expression relative to Control- Donor 1, Mean: −17.6065
MCP1/CCL2; Conc. (X) 1000
  MCP1 expression relative to Control- Donor 2, Mean: 1.602
MCP1/CCL2; Conc. (X) 2500
  MCP1 expression relative to Control- Donor 2, Mean: −4.0591
MCP1/CCL2; Conc. (X) 5000
  MCP1 expression relative to Control- Donor 2, Mean: −10.5725
MCP1/CCL2; Conc. (X) 10000
  MCP1 expression relative to Control- Donor 2, Mean: −28.4419
MCP1/CCL2
  MCP1/CCL2 secretion (baseline subtracted): significantly decrease

## CC(C)[C@H](N)C(=O)O [Valine, L-Valine]
CCL18; Donor 1, Conc. 234 μM
  Donor 1 CCL18 Measurements Mean: 1.109 fold change
CCL18; Donor 1, Conc. 4684 μM
  Donor 1 CCL18 Measurements Mean: 1.264 fold change
CCL18; Donor 1, Conc. 11710 μM
  Donor 1 CCL18 Measurements Mean: 1.442 fold change
CCL18; Donor 1, Conc. 23420 μM
  Donor 1 CCL18 Measurements Mean: 0.9491 fold change
CCL18; Donor 2, Conc. 234 μM
  Donor 2 CCL18 Measurements Mean: 1.255 fold change
CCL18; Donor 2, Conc. 4684 μM
  Donor 2 CCL18 Measurements Mean: 1.545 fold change
CCL18; Donor 2, Conc. 11710 μM
  Donor 2 CCL18 Measurements Mean: 1.998 fold change
CCL18; Donor 2, Conc. 23420 μM
  Donor 2 CCL18 Measurements Mean: 2.269 fold change
CCL18; Conc. 234 μM
  CCL18 Measurements: Mean (fold change relative to vehicle control): 0.7896 fold change
CCL18; Conc. 4684 μM
  CCL18 Measurements: Mean (fold change relative to vehicle control): 0.9781 fold change
CCL18; Conc. 11710 μM
  CCL18 Measurements: Mean (fold change relative to vehicle control): 0.9976 fold change
CCL18; Conc. 23420 μM
  CCL18 Measurements: Mean (fold change relative to vehicle control): 1.082 fold change
CCL18; Donor 2
  IL-4 induced CCL18 secretion (fold change relative to vehicle control): significantly increased
MCP1/CCL2; [1]
  MCP1 expression relative to Control- Donor 1, Mean: −2.4E−15
  MCP1 expression relative to Control- Donor 2, Mean: −1.4E−14
MCP1/CCL2; Conc. 4684 μM
  MCP1 expression relative to Control- Donor 1, Mean: 23.6867
  MCP1 expression relative to Control- Donor 2, Mean: 10.79
MCP1/CCL2; Conc. 11710 μM
  MCP1 expression relative to Control- Donor 1, Mean: 77.73
  MCP1 expression relative to Control- Donor 2, Mean: 38.25
MCP1/CCL2; Conc. 23420 μM
  MCP1 expression relative to Control- Donor 1, Mean: 14.17
  MCP1 expression relative to Control- Donor 2, Mean: −30.7921
MCP1/CCL2
  MCP1/CCL2 secretion (baseline subtracted): did not have an effect
